Reference: patent publication US20130302389A1, “COSMETIC COMPOSITION CONTAINING AT LEAST TWO OSMOLYTES WITH A MOISTURIZING OR ANTIAGING EFFECT” (LVMH Recherche, priority 2008, published 2013)

System: HSPA1A
Test: Stimulation of HSPA1A mRNA expression in normal human epidermal keratinocytes (RT-QPCR)
Format: cell-based
Settings: 24 hours, mRNA by RT-QPCR relative to G3PDH, control (untreated cells) normalized to 100% expression
Method: Cell type: normal human keratinocytes (NHK) as an immersed monolayer, strongly post-confluent and at the third subculture.
Culture medium: low-calcium K-SFM (Invitrogen) supplemented with Epidermal Growth Factor (EGF Sigma) at 2.5 ng/ml, pituitary extract (EP Invitrogen) 2.5 μg/ml and gentamicin (Sigma) 25 μg/ml. For the treatments with the various compounds, this medium is replaced with K-SFM medium not supplemented with EGF and EP.
Treatment time: 24 hours with the various kosmotropes, and other molecules or extracts, and combinations thereof.
Test compounds: the taurine, D-trehalose, inositol and betaine (Sigma) are dissolved in the culture medium and tested at concentrations of 166 and 500 μg/ml, or, when this was not possible for reasons of solubility or cytotoxicity, at substantially lower concentrations.
The combination of these four compounds in proportions of 1/1/1/1 by weight is tested at the same concentrations.
Assays of the mRNA of HMSPA1A by RT-QPCR: at the end of the incubation period, the culture supernatants are removed and the cells, rinsed with PBS (Invitrogen), are covered with a solution of Tri-reagent (Sigma) and then frozen immediately at −80° C.
Extraction of the total RNA is performed according to the protocol of the Tri-reagent supplier (Sigma) and removal of the traces of DNA is performed with the DNA-free kit (Ambion). The reverse transcription reaction is performed using Oligo(dT) primers and the enzyme superscript II (Gibco).
The PCR (Polymerase Chain Reaction) reactions are performed using a Light Cycler (Roche Molecular Systems, Inc.) and according to the procedures recommended by the supplier. The pairs of primers used in this study allow amplification of the following fragments:
Homo sapiens heat shock protein HSP70 protein 1A (abbreviation HSPA1A; Gene bank NM 02045; fragment size 213 bp) and liver glyceraldehyde 3-phosphate dehydrogenase 1A (abbreviation G3PDH; Gene bank NM 02046; fragment size 269 bp) serving as the reference gene (caretaker gene) for determining the relative expression of the target HSPA1A.
The reaction medium (10 μl) is formed from the primers for the two target mRNAs (HSPA1A and G3PDH), 2.5 μl of tenfold-diluted cDNA, reaction mixture (Roche) containing the enzyme Taq DNA polymerase, SYBR Green I fluorochrome (which becomes incorporated into the double-stranded DNA during the elongation step), and MgCl2.
The incorporation of fluorescence into the amplified DNA is measured continuously in the course of the PCR cycles. For the same used marker, the later a sample leaves (high number of cycles), the lower the initial number of copies of mRNA.
Normal human keratinocyte cultures are treated for 24 hours with noncytotoxic doses (166 and 500 μg/ml) of each of the four osmolytes separately: taurine, D-trehalose, inositol and betaine. The transcriptional expression of HMSPA1A is measured by RT-PCR.
The control (untreated cells) is normalized to correspond to 100% expression.

With `OC[C@H]1O[C@H](O[C@H]2O[C@H](CO)[C@@H](O)[C@H](O)[C@H]2O)[C@H](O)[C@@H](O)[C@@H]1O` [D-trehalose] the “stimulation of expression of HSPA1A” value (166 μg/ml) was 142% and the “stimulation of expression of HSPA1A” value (500 μg/ml) was 181%.

With `NCCS(=O)O` [Hypotaurine, hypotaurine] the “stimulation of expression of HSPA1A” value (166 μg/ml) was 379%.

`C[N+](C)(C)CC(=O)O` [betaine] was tested, and the “stimulation of expression of HSPA1A” value (166 μg/ml) was 52% and the “stimulation of expression of HSPA1A” value (500 μg/ml) was 85%.

For `O[C@H]1[C@H](O)[C@@H](O)[C@H](O)[C@@H](O)[C@H]1O` [inositol], the “stimulation of expression of HSPA1A” value (166 μg/ml) was 90% and the “stimulation of expression of HSPA1A” value (500 μg/ml) was 101%.

In the case of `NCCS(=O)(=O)O` [taurine], the “stimulation of expression of HSPA1A” value (166 μg/ml) is reported as 171% and the “stimulation of expression of HSPA1A” value (500 μg/ml) is reported as 139%.
